Measurements reported in patent publication US7425410B2, “Methods for diagnosing a bipolar disorder and unipolar disorder” (Free State Diagnostics, LLC, priority 2003, dated 2008).

What was measured:
[1] = tested on: lymphoblasts; assay: Rate of drop in membrane potential (repolarization rate) in lymphoblasts; type: cell-based, human
Protocol: As the Na^+K^+ ATPase density on the cell surface increases, the intracellular sodium concentration decreases and the membrane potential begins to drop as a result of repolarization of the cell membrane. The rate of drop in membrane potential (repolarization rate) in affected cells incubated for 30 minutes in both K^+-free buffer and in K^+-containing (regular) buffer in the presence or absence of 30 μM ethacrynate was compared to that of unaffected cells incubated for 30 minutes in both K^+-free buffer and in K^+-containing buffer in the presence or absence of 30 μM ethacrynate. The difference in the median values between the two groups was greater than would be expected by chance.
The rate of drop in membrane potential after incubation with the protein kinase C (PKC) activator, phorbol 12-myristate 13-acetate (PMA), was compared in affected cells to that of unaffected cells. The membrane potential of these cells was determined by measuring the fluorescence intensity as described above. The rate of drop in membrane potential (repolarization rate) in affected cells was compared to that in unaffected cells in K^+-free buffer in the presence or absence of 2 μM PMA. The difference in the median values between the two groups was greater than would be expected by chance.
The rate of drop in membrane potential (repolarization rate) in affected cells incubated for 30 minutes in both K^+-free buffer and in K^+-containing (regular) buffer in the presence or absence of 2 μM PMA was compared to that of unaffected cells incubated for 30 minutes in both K^+-free buffer and in K^+-containing buffer in the presence or absence of 2 μM PMA. The difference in the median values between the two groups was greater than would be expected by chance.

[2] = tested on: whole blood cells; assay: Open clinical trial: fluorescence intensity ratio of whole blood cells; type: cell-based, human
Protocol: A pilot clinical trial was conducted using blood samples from 12 clinically affected bipolar patients and 11 unaffected controls. The medical histories of the patients were known to the investigator measuring the membrane potentials; therefore, the trials described in this example were open trials. The patients ranged from 19 years to 77 years in age, and included males and females from different ethnic groups. Similarly, the controls ranged from 25 to 67 including males and females from different ethnic groups. The patients were all hospitalized following a confirmed manic episode. During the drawing of samples, all patients were on mood stabilizers, either lithium or valproate.
Because the volume of blood required to collect enough lymphocytes was beyond that permitted by the current protocol, the membrane potential of whole blood cells was determined. The volume of whole blood required was approximately 1 ml. The blood samples were kept on ice until they were stored at 4° C. All of the samples were tested within 48 hours.
Whole blood samples drawn from patients and controls were suspended in K^+-containing buffer without ethacrynate and in K^+-free buffer with 30 μM ethacrynate or with 100 mM sorbitol. The fluorescent dye DiOC6(3) was added to both suspensions and incubated for 30 minutes. The cell suspensions loaded with the dye were centrifuged, drained and resuspended in the respective buffers. The fluorescence intensity was measured for 10 seconds and the ratio of the intensity in K^+-free buffer to the intensity in K^+-containing buffer was calculated.

[3] = tested on: lymphoblasts; assay: Membrane potential of lymphoblasts by DiOC6(3) fluorescence intensity ratio; type: cell-based, human
Protocol: Three groups of immortalized lymphoblast samples were obtained from the Human Genetic Mutant Cell Repository (Coriell Institute for Medical Research, Camden N.J.). The samples are shown in Table 4 below and included six from affected (bipolar I disorder) patients (A1 through A6), six from their siblings (S1 through S6), and six from unrelated normal control subjects matched by age and sex (N1 through N6).
The cells were grown at 37° C. in RPMI 1640 culture medium (GIBCO, Life Technologies, Gaithersburg, Md., USA) with 15% fetal bovine serum and 1% penicillin.
The membrane potentials of the bipolar I cells shown in Table 4 above (as well as in all other experiments, except where indicated) were measured using the following protocol. The cells cultured in the media described above were centrifuged at 210 g for 5 minutes at room temperature, then suspended in 3 ml of K^+-containing stock buffer (5 mM KCl, 4 mM NaHCO3, 5 mM HEPES, 134 mM NaCl, 2.3 mM CaCl2, and 5 mM glucose). The cells were counted and the desired number of cells were again suspended in the K^+-containing buffer. The membrane potentials were measured using 3,3′-dihexyloxacarbocyanine iodide DiOC6(3), a cell-permeant, voltage sensitive, green-fluorescent dye (Molecular Probes Inc. Eugene, Oreg. USA). The cells were preincubated for 30 minutes before measurements. The preincubated cell suspension was centrifuged at 210 g for 5 minutes and the cells were resuspended in the K^+-containing buffer without the dye in the buffer.
A fluorescence spectrometer (F2500 Hitachi, Japan) was used for the measurement of the membrane potential by measuring the fluorescence intensity of DiOC6(3), which is directly proportional to the membrane potential. The intensity of fluorescence was measured at an excitation wavelength of 488 nm and an output wavelength of 540 nm. The time of recordings varied from 10 seconds to 1500 seconds depending upon the experiment.
Membrane potential was expressed according to fluorescence intensity using the following equation: I=CV, wherein I is the fluorescence intensity of a lipophilic fluorescent dye DiOC6(3) being only one example of such a dye); V is the voltage or membrane potential; and C is a constant that can vary depending on a number of factors such as, but not limited to, temperature, lamp intensity, number of cells, concentration of the fluorescent dye, incubation time, and lipid composition of cells used. By using the ratio of the fluorescence intensity (I1) of one sample of cells to the fluorescence intensity (I2) of another sample of cells, the constant (C) could be canceled out
Membrane potentials were also measured in K^+-free buffer to enable comparison with membrane potentials in K^+-containing buffer. As used herein, K^+-free buffer contains all of the components of the K^+-containing buffer, except potassium (4 mM NaHCO3, 5 mM HEPES, 134 mM NaCl, 2.3 mM CaCl2, and 5 mM glucose). Constant volumes of samples of each cell line were added to an equal volume of buffer containing an equal volume of dye. […] Each variable was constant for each cell line in both buffers, so that the ratio of intensities was a true ratio-metric measurement.
The relative fluorescence intensity ratio of cells in K^+-free buffer was compared to that of cells in K^+-containing buffer with or without 30 μM ethacrynate. […] The membrane potential of these cells was determined by measuring the fluorescence intensity as described above. […]

[4] = tested on: whole blood cells; assay: Blind clinical trial and individual patient diagnosis: fluorescence intensity ratio of whole blood cells; type: cell-based, human; details: 30 μM ethacrynate
Protocol: A clinical trial was conducted using blood samples from the following four groups: schizophrenic, bipolar, and unipolar patients, as well as controls. The medical histories of these patients were unknown to the investigator measuring the membrane potentials; therefore, the trials described in this example were blind trials. The sample size was determined to be 5 with a power of 0.9, an alpha of 0.05, a difference in mean of 0.08, and a standard deviation of 0.03. However, more than 10 samples for each category were tested for a total sample size of 59. If a patient matched a diagnosis, structured clinical interviews according to DSM-IV guidelines were performed.
Whole blood samples drawn from patients and controls were suspended both in K^+-containing buffer and in K^+-free buffer with 30 μM ethacrynate or with 100 μM sorbitol. The fluorescent dye DiOC6(3) was added to both suspensions and incubated for 30 minutes. The cell suspensions loaded with the dye were centrifuged, drained and resuspended in the respective buffers. The fluorescence intensity was measured for 10 seconds and the ratio of the intensity in K^+-free buffer to the intensity in K^+-containing buffer was calculated.
An individual patient's cell sample was tested as described herein and six to twelve ratios were calculated. These values were treated as a group and compared with a normal control group (negative control) and a bipolar group (positive control).

[5] = antibiotic ionophore; cited from earlier work
[6] = Bipolars, 30 μM ethacrynate, whole blood
[7] = Controls, 30 μM ethacrynate, whole blood
[8] = blind trial, Bipolars, whole blood
[9] = blind trial, Controls, whole blood
[10] = blind trial, Schizophr., whole blood
[11] = blind trial, Unipolars, whole blood

Structure (SMILES): CCCCCCCCCCCCCC(=O)O[C@@H]1[C@@H](C)[C@@]2(O)[C@@H](C=C(CO)C[C@]3(O)C(=O)C(C)=C[C@@H]23)[C@@H]2C(C)(C)[C@]12OC(C)=O [PMA, phorbol 12-myristate 13-acetate]
- relative ratio of repolarization rates in affected cells compared to unaffected cells ([1]; 2 μM PMA, 30 min, K+-free and K+-containing buffer, P=0.046): significantly lower
- repolarization rate (with PMA/without PMA) in affected cells compared to unaffected cells ([1]; K+-free buffer, 2 μM PMA, t-test P=0.029): significantly different

Structure (SMILES): C=C(CC)C(=O)c1ccc(OCC(=O)O)c(Cl)c1Cl [ethacrynate]
- mean fluorescence intensity ratio of bipolar samples compared to control samples ([2]; 30 μM ethacrynate, t-test): significantly lower
- ratio of fluorescence intensity in K+-free buffer with ethacrynate to K+-containing buffer without ethacrynate, Mean [2, 6]: 0.780
- ratio of fluorescence intensity in K+-free buffer with ethacrynate to K+-containing buffer without ethacrynate, Median [2, 6]: 0.778
- ratio of fluorescence intensity in K+-free buffer with ethacrynate to K+-containing buffer without ethacrynate, Mean [2, 7]: 0.893
- ratio of fluorescence intensity in K+-free buffer with ethacrynate to K+-containing buffer without ethacrynate, Median [2, 7]: 0.893
- relative intensity ratio of affected cells compared to unaffected cells ([3]; 30 μM ethacrynate, 30 min, K+-free vs K+-containing buffer, t-test P=0.009): significantly higher
- intensity ratio (membrane potential with ethacrynate/without ethacrynate) of affected cells compared to unaffected cells ([3]; K+-free buffer, 30 μM ethacrynate, t-test P=0.032): significantly higher
- relative intensity ratio, mean (intensity ratio with/without ethacrynate in K+-free buffer divided by that in K+-containing buffer) ([3]; affected (bipolar I) cells, 30 μM ethacrynate, 30 min): approximately 1.04
- relative intensity ratio, mean (intensity ratio with/without ethacrynate in K+-free buffer divided by that in K+-containing buffer) ([3]; unaffected (sibling and normal) cells, 30 μM ethacrynate, 30 min): approximately 0.79
- relative rate of repolarization in affected cells compared to unaffected cells ([1]; 30 μM ethacrynate, 30 min, K+-free and K+-containing buffer, P=0.041): significantly higher
- ratio of fluorescence intensity in K+-free buffer with ethacrynate to K+-containing buffer without ethacrynate, Mean ([4]; Patient A): 0.766
- ratio of fluorescence intensity in K+-free buffer with ethacrynate to K+-containing buffer without ethacrynate, Median ([4]; Patient A): 0.763
- fluorescence intensity ratio of bipolar samples compared to the other three groups ([4]; blind trial, ANOVA): significantly lower
- fluorescence intensity ratio of unipolar samples compared to the other three groups ([4]; blind trial, ANOVA): significantly higher
- ratio of fluorescence intensity in K+-free buffer with ethacrynate to K+-containing buffer without ethacrynate, Mean [4, 8]: 0.768
- ratio of fluorescence intensity in K+-free buffer with ethacrynate to K+-containing buffer without ethacrynate, Median [4, 8]: 0.773
- ratio of fluorescence intensity in K+-free buffer with ethacrynate to K+-containing buffer without ethacrynate, Mean [4, 9]: 0.850
- ratio of fluorescence intensity in K+-free buffer with ethacrynate to K+-containing buffer without ethacrynate, Median [4, 9]: 0.850
- ratio of fluorescence intensity in K+-free buffer with ethacrynate to K+-containing buffer without ethacrynate, Mean [4, 10]: 0.870
- ratio of fluorescence intensity in K+-free buffer with ethacrynate to K+-containing buffer without ethacrynate, Median [4, 10]: 0.863
- ratio of fluorescence intensity in K+-free buffer with ethacrynate to K+-containing buffer without ethacrynate, Mean [4, 11]: 0.898
- ratio of fluorescence intensity in K+-free buffer with ethacrynate to K+-containing buffer without ethacrynate, Median [4, 11]: 0.901

Structure (SMILES): CC[C@@]1([C@@H]2O[C@@H]([C@H]3O[C@@](O)(CO)[C@H](C)C[C@@H]3C)C[C@@H]2C)CC[C@H]([C@]2(C)CC[C@]3(C[C@H](O)[C@@H](C)[C@@H]([C@@H](C)[C@@H](OC)[C@H](C)C(=O)O)O3)O2)O1 [monensin]
- intensity ratio (membrane potential with monensin/without monensin) of affected cells compared to unaffected cells ([3]; K+-free buffer, 10 μM monensin, 30 min, t-test P=0.009): significantly lower
- preference for Na+ over K+ [5]: 10 fold

Structure (SMILES): OC[C@@H](O)[C@@H](O)[C@H](O)[C@@H](O)CO [sorbitol]
- fluorescence intensity ratios of bipolar cells with sorbitol compared to ethacrynate ([2]; bipolar patients, 100 mM sorbitol in K+-free buffer, whole blood): comparable
